{"source": "patent US20240285688A1", "about": "“Extensive whey protein hydrolysate with tolerogenic peptides” (N.V. Nutricia, priority 2019, published 2024)", "assay": "Presence of tolerogenic betalactoglobulin peptides in feed, retentate and permeate of membrane ultrafiltration (micro LC-MS ESI MS2)", "assay_type": "physicochemical", "conditions": "Example 3: urea (8 M) added after hydrolysis and before ultrafiltration", "experimental": "In a Multifors reactor (Infors HT) 500 gram of whey protein powder (WPC83, Arla Foods, with about 80% whey protein) was dissolved in water at a final concentration of about 4 wt % at a temperature of about 75° C., giving a protein concentration of about 3.2 wt %. After dissolving the mixture was cooled to 58° C. and the pH was adjusted to neutral (pH 7-8). Proteolytic enzymes were added (Trypsin, Neova Technologies Inc) to a concentration of 33 mg/100 g solution and hydrolysis took place for about 105 min under continuous stirring. During hydrolysis the pH was kept constant. After hydrolysis the mixture was quickly cooled to 4° C.\nNext the mixture of whey protein hydrolysate and proteolytic enzymes was filtrated. 200 ml of the mixture (the feed) was filtrated for 20 minutes on a MMS Triple System membrane filtration unit (MMS AG Membrane Systems) provided with an ultrafiltration membrane from Koch (Koch: HFK-131, a flat sheet polyethersulfone ultrafiltration membrane with a molecular weight cut off of 10 kDa) under a pressure of 8 bars. A one-layer filtration setup was used and the retentate was circulated during filtration. Each membrane was used only once to promote reproducibility. The filtration cooling system was set to 15° C. The permeate was weighted, MMS filtration software was used for the registering of the permeate throughput. Samples were taken of the mixture before membrane filtration (the feed), and of the permeate and retentate after the membrane filtration step. About 93% of permeate (wt % of total feed) was produced comprising about 85 wt % of peptides (wt % of the peptides in the feed). Samples were stored at −50° C. for further analysis.\nThe presence of tolerogenic betalactoglobulin peptides in the samples was analyzed according to Gouw et al., 2018, Clin. Exp. Allergy 48:[…], with the modification that instead of nanoLC-ESI MS2, micro LC-MS ESI MS2 was used. The presence of 5 specific peptides was tested (region overlapping with the 13-48 AA acid region of betalactoglobulin in bold):\nThe process of example 1 was repeated. The only difference was that Citrem (Grinsted® Citrem, DuPont) was added at an amount of about 3.6 gram before the pH adjustment and the addition of the proteolytic enzymes. […]\nThe process of example 2a was repeated, the only difference being that instead of the emulsifier, 51 gram of urea (source Merck) was dissolved per 100 g water (8 M) and added after the hydrolysis step and before ultrafiltration. […] All peptides were detected in the retentate and feed, and peptides 1, 3, 4 and 5 of example 1 (i.e. SEQ ID NOs 66, 68, 69 and 70 with X=L) were detected in the permeate, in an amount of about 1-10 wt. % of the concentration of these peptides in the feed. […]", "note": "Peptide text beside a SMILES is read from it."}
{"smiles": "CC[C@H](C)[C@H](NC(=O)[C@H](CC(=O)O)NC(=O)[C@H](CC(C)C)NC(=O)CNC(=O)[C@H](CCCCN)NC(=O)[C@H](CCSC)NC(=O)[C@@H](NC(=O)[C@H](CCC(N)=O)NC(=O)[C@@H](NC(=O)[C@@H](NC(=O)[C@@H](NC(=O)[C@@H](N)CC(C)C)[C@@H](C)CC)C(C)C)[C@@H](C)O)[C@@H](C)O)C(=O)N[C@@H](CCC(N)=O)C(=O)N[C@@H](CCCCN)C(=O)N[C@H](C(=O)N[C@@H](C)C(=O)NCC(=O)N[C@H](C(=O)N[C@@H](Cc1c[nH]c2ccccc12)C(=O)N[C@@H](Cc1ccc(O)cc1)C(=O)N[C@@H](CO)C(=O)N[C@@H](CC(C)C)C(=O)N[C@@H](C)C(=O)N[C@@H](CCSC)C(=O)N[C@@H](C)C(=O)N[C@@H](C)C(=O)N[C@@H](CO)C(=O)O)[C@@H](C)O)C(C)C", "note": "[Peptide 1] (H-LIVTQTMKGLDIQKVAGTWYSLAMAAS-OH; N-terminus and C-terminus assumed)", "values": [{"measurement": "presence of the tolerogenic peptides in the permeate", "value": "detected"}]}
{"smiles": "CC[C@H](C)[C@H](NC(=O)[C@H](CC(=O)O)NC(=O)[C@H](CC(C)C)NC(=O)CNC(=O)[C@H](CCCCN)NC(=O)[C@H](CCSC)NC(=O)[C@@H](N)[C@@H](C)O)C(=O)N[C@@H](CCC(N)=O)C(=O)N[C@@H](CCCCN)C(=O)N[C@H](C(=O)N[C@@H](C)C(=O)NCC(=O)N[C@H](C(=O)N[C@@H](Cc1c[nH]c2ccccc12)C(=O)N[C@@H](Cc1ccc(O)cc1)C(=O)N[C@@H](CO)C(=O)N[C@@H](CC(C)C)C(=O)N[C@@H](C)C(=O)N[C@@H](CCSC)C(=O)N[C@@H](C)C(=O)N[C@@H](C)C(=O)N[C@@H](CO)C(=O)N[C@@H](CC(=O)O)C(=O)N[C@H](C(=O)N[C@@H](CO)C(=O)N[C@@H](CC(C)C)C(=O)N[C@@H](CC(C)C)C(=O)N[C@@H](CC(=O)O)C(=O)N[C@@H](C)C(=O)N[C@@H](CCC(N)=O)C(=O)O)[C@@H](C)CC)[C@@H](C)O)C(C)C", "note": "[Peptide 3] (H-TMKGLDIQKVAGTWYSLAMAASDISLLDAQ-OH; N-terminus and C-terminus assumed)", "values": [{"measurement": "presence of the tolerogenic peptides in the permeate", "value": "detected"}]}
{"smiles": "CC[C@H](C)[C@H](NC(=O)[C@H](CC(=O)O)NC(=O)[C@H](CC(C)C)NC(=O)CNC(=O)[C@H](CCCCN)NC(=O)[C@H](CCSC)NC(=O)[C@@H](N)[C@@H](C)O)C(=O)N[C@@H](CCC(N)=O)C(=O)N[C@@H](CCCCN)C(=O)N[C@H](C(=O)N[C@@H](C)C(=O)NCC(=O)N[C@H](C(=O)N[C@@H](Cc1c[nH]c2ccccc12)C(=O)N[C@@H](Cc1ccc(O)cc1)C(=O)N[C@@H](CO)C(=O)N[C@@H](CC(C)C)C(=O)N[C@@H](C)C(=O)N[C@@H](CCSC)C(=O)N[C@@H](C)C(=O)N[C@@H](C)C(=O)N[C@@H](CO)C(=O)N[C@@H](CC(=O)O)C(=O)N[C@H](C(=O)N[C@@H](CO)C(=O)N[C@@H](CC(C)C)C(=O)N[C@@H](CC(C)C)C(=O)O)[C@@H](C)CC)[C@@H](C)O)C(C)C", "note": "[Peptide 4] (H-TMKGLDIQKVAGTWYSLAMAASDISLL-OH; N-terminus and C-terminus assumed)", "values": [{"measurement": "presence of the tolerogenic peptides in the permeate", "value": "detected"}]}
{"smiles": "CC[C@H](C)[C@H](NC(=O)[C@H](CC(=O)O)NC(=O)[C@H](CC(C)C)NC(=O)CNC(=O)[C@H](CCCCN)NC(=O)[C@H](CCSC)NC(=O)[C@@H](NC(=O)[C@H](CCC(N)=O)NC(=O)[C@@H](NC(=O)[C@@H](NC(=O)[C@@H](NC(=O)[C@@H](N)CC(C)C)[C@@H](C)CC)C(C)C)[C@@H](C)O)[C@@H](C)O)C(=O)N[C@@H](CCC(N)=O)C(=O)N[C@@H](CCCCN)C(=O)N[C@H](C(=O)N[C@@H](C)C(=O)NCC(=O)N[C@H](C(=O)N[C@@H](Cc1c[nH]c2ccccc12)C(=O)N[C@@H](Cc1ccc(O)cc1)C(=O)N[C@@H](CO)C(=O)N[C@@H](CC(C)C)C(=O)N[C@@H](C)C(=O)N[C@@H](CCSC)C(=O)N[C@@H](C)C(=O)N[C@@H](C)C(=O)N[C@@H](CO)C(=O)N[C@@H](CC(=O)O)C(=O)N[C@H](C(=O)N[C@@H](CO)C(=O)N[C@@H](CC(C)C)C(=O)N[C@@H](CC(C)C)C(=O)O)[C@@H](C)CC)[C@@H](C)O)C(C)C", "note": "[Peptide 5] (H-LIVTQTMKGLDIQKVAGTWYSLAMAASDISLL-OH; N-terminus and C-terminus assumed)", "values": [{"measurement": "presence of the tolerogenic peptides in the permeate", "value": "detected"}]}
